Laboratory results from patent US20260125428A1, “SYNTHETIC TRIPLEX PEPTIDE NUCLEIC ACID-BASED INHIBITORS FOR CANCER THERAPY” (University of Connecticut, priority 2022, published 2026).

System: c-myc protein
Assay: Efficacy study in Ep-myc mice: c-myc protein in lymph nodes by western blot
Type: in vivo
Settings: SC 60 mg/kg over 2 days, euthanized day 3, western blot
Experimental: FIGS. 8A-D show organ distribution after intravenous and subcutaneous administration of indicated PNAs. (8A) The organ distribution of γPNA-NLS TAMRA after intravenous (IV) and subcutaneous (SC) administration in transgenic mice model of B-cell lymphoma (Ep-myc). γPNA-NLS TAMRA was administered at 5 mg/kg via IV and SC route and organ distribution was determined via IVIS imaging after 24 h. (8B) Confocal microscopy images of different lymph nodes (LNs) after IV and SC injection of γPNA-NLS TAMRA. Blue indicates DAPI and red indicated TAMRA. Scale bar, 30 μm. (8C) C-myc protein levels in brachial lymph nodes of γPNA5-NLS treated mice in comparison to the control (untreated mice). N=4 mice per group. (8D) C-myc protein levels in axillary lymph nodes of γPNA5-NLS treated mice in comparison to the control (untreated mice). N=4 mice per group. […]
Western blot analysis: Total protein was extracted from collected lymphocytes using 1×RIPA buffer (Cell signaling technology, USA) containing protease inhibitor. The concentration of protein was determined using absorbance-based DC protein assay (Bio-Rad, USA). […] The bands were detected using anti-rabbit IgG HRP linked secondary antibody (Cell signaling technology, #7074) (1:2000 dilution, 5% milk in TBST) and HRP substrate (Millipore sigma). The blots were imaged using ChemiDoc imager (Bio-Rad, USA) and band intensities were quantified using imageJ.

## X3TCCCTCCCCTCCCTTCTTTTTCCX2 (gamma PNA; NLS peptide; gammaPNA; misc_feature 1 JJJTJJJT-linker- is covalently linked to the backbone, wherein J is pseudoisocytosine and the linker is 11-Amino-3,6,9-Trioxaundecanoic Acid (DCHA), represented as -OOO-; misc_feature 23 -K-linker-SEQ ID NO: 5 is covalently linked to the backbone, wherein the linker is 11-Amino-3,6,9-Trioxaundecanoic Acid (DCHA), represented as -OOO-; modified_base 1..23 OTHER; peptide nuc) [γPNA5-NLS]
  c-myc protein levels in brachial and axillary lymph nodes in comparison to untreated group: substantial decrease in c-myc protein levels
